Patent EP0998923A1, “Use of 5-HT7 receptor agonists for the treatment or prophylaxis of ischemias” (BASF AKTIENGESELLSCHAFT, priority 1998, dated 2000)

How the values were obtained:
5-HT1A receptor = target: T1, 5-HT1A receptor (Homo sapiens, UniProt P08908); test: Affinity to the 5-HT1A receptor; assay type: binding
T1 sequence (P08908 1-422): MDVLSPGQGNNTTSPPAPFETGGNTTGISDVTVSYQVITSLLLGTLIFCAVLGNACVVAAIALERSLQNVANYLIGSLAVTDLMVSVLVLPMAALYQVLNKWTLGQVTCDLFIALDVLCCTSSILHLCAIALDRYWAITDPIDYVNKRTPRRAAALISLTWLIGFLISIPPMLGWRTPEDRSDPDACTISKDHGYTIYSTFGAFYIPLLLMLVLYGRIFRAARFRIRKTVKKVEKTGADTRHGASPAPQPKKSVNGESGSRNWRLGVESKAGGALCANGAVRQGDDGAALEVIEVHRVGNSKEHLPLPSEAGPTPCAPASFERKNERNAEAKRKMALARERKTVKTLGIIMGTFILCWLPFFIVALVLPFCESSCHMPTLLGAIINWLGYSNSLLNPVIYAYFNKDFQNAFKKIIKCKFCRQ
Description: (§1) The affinity of a compound to a human 5-HT receptor can be measured and calculated easily by methods known to a skilled person.

male Long Evans rats = test: Permanent distal middle cerebral artery (MCA) occlusion, rat model of experimental stroke; assay type: in vivo
Description: The experiments were carried out in male Long Evans rats. Under halothane anesthesia supplemented with nitrous oxide, the right middle cerebral artery (MCA) was dissected and permanently ligated at a distal position as described in the literature. The outcome of the experiments was quantified by determining the resulting infarct volume 22 hours after MCA occlusion.
In the first series of experiments, animals were treated with 2 mg/kg R(+)-8-OH-DPAT i.v. followed by a maintenance infusion of 1 mg/kg/h R(+)-8-OH-DPAT i.v. Drug administration was started 90 min after MCA occlusion. In the second series of experiments, rats were pretreated with 2.14 mg/kg/h WAY 100,635 i.p., started 2 hours before MCA occlusion; administration of R(+)-8-OH-DPAT was subsequently performed as in the first study. Accordingly, in the second series a total dose of 2.14 mg/kg/h of WAY 100,635 had been administered for 3.5 h (total dosage = 7.49 mg/kg) before treatment with the agonist R(+)-8-OH-DPAT commenced. The blockade of 5-HT1A receptors under these conditions was confirmed by the complete lack of stereotyped behavior observed in animals treated with R(+)-8-OH-DPAT […]. Under the conditions of the second series, any pharmacological effect of R(+)-8-OH-DPAT treatment are mediated by the 5-HT7 receptor.
The experiments were carried out under the same conditions as described in Example 1,
A preferred 5-HT7 receptor agonist is 1-[3-[4-[3-(trifluoromethyl)-phenyl]-piperazine-1-yl]-propyl]-3-hydroxy-1H-pyridine-2-on (= Compound A), a compound which can be prepared as discribed in example 3. The 5-HT7 agonist Compound A was administered as an intravenous bolus followed by a maintenance infusion.

5-HT7 receptor = 5-HT7 receptor (Homo sapiens, UniProt P34969); test: Affinity to the 5-HT7 receptor; assay type: binding
Description: as §1

Chain of 5-HT7 receptor (P34969 whole entry): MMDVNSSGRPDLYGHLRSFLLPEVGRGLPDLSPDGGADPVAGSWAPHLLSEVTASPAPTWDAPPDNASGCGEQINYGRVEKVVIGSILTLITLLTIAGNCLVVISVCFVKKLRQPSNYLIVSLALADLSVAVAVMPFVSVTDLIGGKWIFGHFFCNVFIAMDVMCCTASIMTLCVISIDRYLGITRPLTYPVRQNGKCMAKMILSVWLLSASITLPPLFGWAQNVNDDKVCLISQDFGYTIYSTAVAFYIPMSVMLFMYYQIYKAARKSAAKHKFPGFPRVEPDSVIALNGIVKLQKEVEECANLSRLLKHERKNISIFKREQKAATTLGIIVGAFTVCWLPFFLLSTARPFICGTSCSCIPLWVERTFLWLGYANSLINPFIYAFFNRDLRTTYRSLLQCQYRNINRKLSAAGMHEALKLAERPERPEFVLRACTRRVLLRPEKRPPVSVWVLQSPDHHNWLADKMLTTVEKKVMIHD

Row | Compound | Ki (5-HT1A receptor) [nM] | Stereotyped behavior (male Long Evans rats; Example 2: dose 4+2 mg/kg + mg/kg/h i.v.) | Infarct volume, % of control, mean ± SD, (n) Treatment (male Long Evans rats; Example 2: dose 4+2 mg/kg + mg/kg/h i.v. (bolus + maintenance infusion), same conditions as Example 1) | Ki (5-HT7 receptor) [nM] | selectivity for the 5-HT7 receptor (5-HT7 receptor; 5-HT7 over 5-HT1A (ratio of Ki values)) | Infarct volume, % of control, mean ± SD, (n) Treatment (male Long Evans rats; Example 1: 2 mg/kg R(+)-8-OH-DPAT i.v. + 1 mg/kg/h i.v. infusion, started 90 min after MCA occlusion, combination: pretreated with 2.14 mg/kg/h WAY 100,635 i.p. from 2 hours before occlusion, infarct volume 22 hours after occlusion) | Stereotyped behavior (male Long Evans rats; Example 1: same dosing as for infarct volume, with or without WAY 100,635 pretreatment) | reduction of infarct volume (male Long Evans rats; Example 1: versus placebo, 22 hours after MCA occlusion) [%]
1 | O=c1c(O)cccn1CCCN1CCN(c2cccc(C(F)(F)F)c2)CC1 [Compound A, 1-[3-[4-[3-(trifluoromethyl)-phenyl]-piperazine-1-yl]-propyl]-3-hydroxy-1H-pyridine-2-on] | 130 | No | 78±23(10) % of control | 7 | approximately 19 fold |  |  | 
2 | CCCN(CCC)C1CCc2cccc(O)c2C1 (stereo not drawn) [R(+)-8-OH-DPAT, 8-hydroxy-di-n-propylamino tetralin] |  |  |  |  |  | 72±32(12) % of control | Yes | 28
